Data as given in ChEMBL document CHEMBL3779803, “α-Glucosidase Inhibitory Prenylated Anthranols from Harungana madagascariensis” (J Nat Prod, 2016).

target: not listed separately; assay: Inhibition of Saccharomyces cerevisiae alpha-glucosidase using p-nitrophenyl-alpha-D-glucoside as substrate measured for 40 mins by spectrophotometric analysis

| IC50 [µM] | Structure (SMILES) |
| --- | --- |
| 207 | CC(C)=CCc1c(C)cc(O)c2c1[C@@H](O)c1c3c(cc(O)c1C2=O)O[C@@H](C(C)(C)O)C3 |
| 1.2 | CC(C)=CCc1c(C)cc2cc3c(c(O)c2c1O)C(=O)C(CC1=C(O)C(CC=C(C)C)(CC=C(C)C)c2cc4cc(C)c(CC=C(C)C)c(O)c4c(O)c2C1=O)=C(O)C3(CC=C(C)C)CC=C(C)C |
| 37.7 | CC(C)=CCc1c(C)cc(O)c2c(O)c3c(cc12)C(CC=C(C)C)(CC=C(C)C)C(O)=CC3=O [HARUNGANIN] |
| 44.1 | CC(C)=CCc1c(C)cc(O)c2c1C(O)c1c(CC=C(C)C)c(O)cc(O)c1C2=O (stereo not drawn) |
| 117 | Cc1cc(O)c2c3c1[C@H](O)[C@@H]1O[C@]3(OC1(C)C)c1c3c(cc(O)c1C2=O)O[C@@H](C(C)(C)O)C3 |
| 36.9 | CC(C)=CCc1c(C)cc(O)c2c1[C@@H](O)c1c3c(cc(O)c1C2=O)OC(C)(C)[C@@H](O)C3 |
| 120 | C[C@@H]1O[C@@H](O[C@@H]2[C@@H](O)[C@H](O)[C@H](O[C@H]3[C@H](O)[C@@H](O)C(O)O[C@@H]3CO)O[C@H]2CO)[C@@H](O)[C@H](O)[C@H]1N[C@H]1C=C(CO)[C@@H](O)[C@H](O)[C@H]1O (stereo partly drawn) |

test system: Saccharomyces cerevisiae; assay: Inhibition of Saccharomyces cerevisiae alpha-glucosidase at 5 uM using p-nitrophenyl-alpha-D-glucoside as substrate measured for 40 mins by spectrophotometric analysis

| inhibition [%] | Structure (SMILES) |
| --- | --- |
| 47 | CC(C)=CCc1c(C)cc2cc3c(c(O)c2c1O)C(=O)C=C(O)C3(CC=C(C)C)CC=C(C)C |
